This experiment deals with recombinant eIF4E (Homo sapiens (Human), UniProt P06730). Put plainly: Fluorescence polarization competition assay for eIF4E binding potency. An outline of the steps:
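Protein and fluorescent cap-analog probe (EDA-m7GDP-ATTO-550) were mixed first for 5 min, after which serially diluted compound was added to final 75 nM eIF4E, 20 nM probe, 1% DMSO. Reactions equilibrated 30 min at room temperature before polarization was measured.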
A general note: Polarisation of emitted light reports the rotation of a fluorescent probe.

Setting [1] is: inhibition of eIF4E/EDA-m7GDP-ATTO-550 binding, calculated IC50 values, Table 4B, read-out: IC50.
[2] abbreviates: fluorescence polarization competition, 75 nM recombinant eIF4E, 20 nM EDA-m7GDP-ATTO-550, IC50 class, read-out: elF4E FP.
Where [3] appears, read: inhibition of eIF4E/EDA-m7GDP-ATTO-550 binding by 50%, Table 4B calculated values, read-out: IC50.

Where two headings read alike, the source gives them in different places.

Chain of recombinant eIF4E (P06730 whole entry): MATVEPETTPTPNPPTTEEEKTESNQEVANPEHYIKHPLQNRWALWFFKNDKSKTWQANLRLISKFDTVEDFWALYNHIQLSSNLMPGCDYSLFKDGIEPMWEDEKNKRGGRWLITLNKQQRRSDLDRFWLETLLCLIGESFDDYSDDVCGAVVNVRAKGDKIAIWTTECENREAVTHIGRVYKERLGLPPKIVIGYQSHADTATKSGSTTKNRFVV

For `Cc1cccc(S(=O)(=O)NC(=O)c2csc3c(-c4cc(Cl)ccc4C#CCn4c(C)nc5cnc(N(C)C6CCN(CC(C)(F)F)CC6)c(C#N)c5c4=O)ccnc23)n1` [compound 1678], under setting [1], the IC50 was 28 nM.

As to `Cc1nc2cc(F)c(F)c(C#N)c2c(=O)n1CCOc1ccc(Cl)cc1-c1ccnc2c(C(=O)NS(C)(=O)=O)csc12` [compound 307], the IC50 was 50 to 1000 nM under setting [2] and 59.4 nM under setting [3].

With `COC(=O)c1sc2c(-c3cc(Cl)ccc3OCCn3c(C)nc4cc(C(F)(F)F)cc(C#N)c4c3=O)ccnc2c1O` [compound 2037], the IC50 under setting [1] was > 1000 nM.

Regarding `Cc1nc2cnc(N(C)[C@H]3CC[C@@H](N4CC(F)(F)C4)CC3)c(C#N)c2c(=O)n1CC#Cc1ccc(Cl)cc1-c1ccnc2c(C(=O)O)csc12` [compound 1100], the IC50 reads like this: under setting [2], < 50 nM; under setting [3], 33.5 nM.

With `Cc1cc(-c2cc(Cl)ccc2OCCn2c(C)nc3cnc(C(C)(F)F)c(C#N)c3c2=O)c2scc(C(=O)O)c2n1` [compound 913], the IC50 under setting [2] is < 50 nM and the IC50 under setting [3] is 16.2 nM.

Turning to `Cc1nc2cc(C(F)(F)F)cc(C#N)c2c(=O)n1CCOc1ccc(Cl)cc1-c1ccnc2c(C(F)(F)C(=O)O)csc12` [compound 295], the IC50 runs as follows: under setting [2], 50 to 1000 nM; under setting [3], 167 nM.

Turning to `Cc1nc2cc(C(F)(F)F)c(F)c(C#N)c2c(=O)n1CCOc1ccc(Cl)cc1-c1ccnc2c(C(=O)O)csc12` [compound 246], the IC50 was < 50 nM under setting [2] and 43 nM under setting [3].

For the compound `Cc1cc(-c2cc(Cl)ccc2OCCn2c(C)nc3cnc(N(C)c4ccccc4)c(C#N)c3c2=O)c2scc(C(=O)O)c2n1` [compound 986], the IC50 by setting is: under setting [2], < 50 nM; under setting [3], 16.9 nM.

For the compound `Cc1nc2cnc(C3=CCC(N(C)CC(F)F)CC3)c(C#N)c2c(=O)n1CC#Cc1ccc(Cl)cc1-c1ccnc2c(C(=O)O)csc12` (centres unmarked) [compound 1573], under setting [1], the IC50 was 22.2 nM.

As to `Cc1cc(-c2cc(Cl)ccc2OCCn2c(C)nc3c(C(F)F)ncc(C#N)c3c2=O)c2scc(C(=O)O)c2n1` [compound 372], the IC50 is, setting by setting: under setting [2], < 50 nM; under setting [3], 7.34 nM.

Turning to `Cc1nc2cc(OC(F)F)cc(C#N)c2c(=O)n1CCOc1ccc(Cl)cc1-c1ccnc2c(C(=O)O)csc12` [compound 1940], under setting [1], the IC50 is 34.9 nM.

Regarding `Cc1cc(-c2cc(Cl)ccc2OCCn2c(C)nc3cc(F)c(F)c(C#N)c3c2=O)c2scc(C(=O)NS(C)(=O)=O)c2n1` [compound 567], the IC50 is, setting by setting: under setting [2], < 50 nM; under setting [3], 11.7 nM.

Regarding `Cc1cc(-c2cc(Cl)ccc2OCCn2c(C)nc3c(C)nc(-c4c(C)cccc4F)c(C#N)c3c2=O)c2scc(C(=O)O)c2n1` [compound 871], the IC50 under setting [2] was < 50 nM.

With `Cc1cc(-c2cc(Cl)ccc2OCCn2c(C)nc3ccc(N4CCN(C)CC4)c(C#N)c3c2=O)c2sc(C)c(C(=O)O)c2n1` [compound 812], the IC50 under setting [2] is < 50 nM and the IC50 under setting [3] was 30 nM.

Turning to `Cc1cc(-c2cc(Cl)ccc2OCCn2c(C)nc3c(C)nc(C(F)(F)F)c(C#N)c3c2=O)c2scc(C(=O)O)c2n1` [compound 730], the IC50 runs as follows: under setting [2], 50 to 1000 nM; under setting [3], 51 nM.

In the case of `Cc1nc2cnc(N(C)C3CCN(C(C)(C)C(C)(F)F)CC3)c(C#N)c2c(=O)n1CC#Cc1ccc(Cl)cc1-c1ccnc2c(C(=O)O)csc12` [compound 1506], under setting [1], the IC50 was 27.4 nM.

Take `Cc1nc2cnc(N(C)C3CCN(CC(F)(F)C4(O)CCC4)CC3)c(C#N)c2c(=O)n1CC#Cc1ccc(Cl)cc1-c1ccnc2c(C(=O)O)csc12` [compound 1598]: under setting [1], the IC50 is 37.5 nM.

On to `Cc1nc2cc(C(F)(F)F)c(N3CCNCC3)c(C#N)c2c(=O)n1CCOc1ccc(Cl)cc1-c1ccnc2ccsc12` [compound 855], for which the IC50 was < 50 nM under setting [2] and 4.77 nM under setting [3].

With `Cc1nc2cnc(N3CCC4(CC3)CN(CC(F)F)C4)c(C#N)c2c(=O)n1CC#Cc1ccc(Cl)cc1-c1ccnc2c(C(=O)NS(=O)(=O)c3cccnc3)csc12` [compound 1409], the IC50 under setting [1] is 10.8 nM.

As for `Cc1nc2cc(C(F)(F)F)cc(C#N)c2c(=O)n1CCOc1ccc(Cl)cc1-c1csc2c(C(=O)O)csc12` [compound 203], the IC50 reads like this: under setting [2], 50 to 1000 nM; under setting [3], 80.6 nM.

For `Cc1cc(-c2cc(Cl)ccc2OCCn2c(C)nc3cnc(C4CCCC4(F)F)c(C#N)c3c2=O)c2scc(C(=O)O)c2n1` (centres unmarked) [compound 929], the IC50 under setting [2] is < 50 nM and the IC50 under setting [3] was 22.5 nM.

Turning to `Cc1nc2cc(Cl)c3c(cnn3C)c2c(=O)n1CCOc1ccc(Cl)cc1-c1ccnc2c(C(=O)O)csc12` [compound 720], the IC50 runs as follows: under setting [2], 50 to 1000 nM; under setting [3], 199 nM.

In the case of `Cc1nc2cc(C(F)(F)F)cc(C#N)c2c(=O)n1CCOc1cc(F)c(C#N)cc1-c1ccnc2c(C(=O)O)csc12` [compound 289], the IC50 is, setting by setting: under setting [2], < 50 nM; under setting [3], 19.1 nM.

For `CCOP(=O)(OCC)c1csc2c(-c3cc(Cl)ccc3OCCn3c(C)nc4cnc(N(C)C5CCN(CC(F)F)CC5)c(C#N)c4c3=O)ccnc12` [compound 1616], under setting [1], the IC50 was 11.5 nM.

Take `Cc1cccc(-c2c(Cl)cc3nc(C)n(CCOc4ccc(Cl)cc4-c4cc(C)nc5c(C(=O)O)c(C)sc45)c(=O)c3c2C#N)n1` [compound 683]: the IC50 runs as follows: under setting [2], < 50 nM; under setting [3], 40.3 nM.

In the case of `C=S(C)(=O)c1cc(C#N)c2c(=O)n(CCOc3ccc(Cl)cc3-c3ccnc4c(C(=O)O)csc34)c(C)c(F)c2c1` (centres unmarked) [compound 274], the IC50 runs as follows: under setting [2], < 50 nM; under setting [3], 18.8 nM.

Turning to `Cc1nc2cc(C(F)(F)F)c(N3CCN(C)CC3)c(C#N)c2c(=O)n1CCOc1ccc(Cl)cc1-c1ccnc2c(-c3nn[nH]n3)csc12` [compound 1228], the IC50 is, setting by setting: under setting [2], < 50 nM; under setting [1], 1.11 nM.

As for `CNC(=O)c1cc(C#N)c2c(=O)n(CCOc3ccc(Cl)cc3-c3ccnc4c(C(=O)O)csc34)c(C)nc2c1` [compound 412], the IC50 reads like this: under setting [2], 50 to 1000 nM; under setting [3], 70.1 nM.

Turning to `Cc1nc2cc(C(F)(F)F)c(N3CCN(CCO)CC3)c(C#N)c2c(=O)n1CC#Cc1ccc(Cl)cc1-c1ccnc2c(C(=O)O)csc12` [compound 859], the IC50 was < 50 nM under setting [2] and 5.59 nM under setting [3].

As for `Cc1nc2cnc(N3CCN(C4C(C)(C)C4(C)C)CC3)c(C#N)c2c(=O)n1CCOc1ccc(Cl)cc1-c1ccnc2c(C(=O)O)csc12` [compound 1473], under setting [1], the IC50 was 16.9 nM.

As to `Cc1cc(-c2cc(Cl)ccc2OCCn2c(C)nc3cnc(-c4cc(Cl)ccc4C)c(C#N)c3c2=O)c2scc(C(=O)O)c2n1` [compound 953], the IC50 is, setting by setting: under setting [2], < 50 nM; under setting [3], 13.4 nM.

For `Cc1nc2cnc(N(C)C3CCN(CC(F)(F)C(F)F)CC3)c(C#N)c2c(=O)n1CC#Cc1ccc(Cl)cc1-c1ccnc2c(C(=O)NS(=O)(=O)c3ccccn3)csc12` [compound 1706], the IC50 under setting [1] is 12.1 nM.

With `Cc1cc(-c2cc(Cl)ccc2OCCn2c(C)nc3cc(C(F)(F)F)c(N4CCN(C)CC4=O)c(C#N)c3c2=O)c2scc(C(=O)O)c2n1` [compound 1075], the IC50 was < 50 nM under setting [2] and 6.64 nM under setting [3].

`CCN(c1ncc2nc(C)n(CC#Cc3ccc(Cl)cc3-c3ccnc4c(C(=O)NS(C)(=O)=O)csc34)c(=O)c2c1C#N)C1CCN([C@H]2C[C@H](OC(F)F)C2)CC1` [compound 1767]: the IC50 under setting [1] was 17.4 nM.

With `Cc1cc(-c2cc(Cl)ccc2OCCn2c(C)nc3cc(C(F)(F)F)cc(C#N)c3c2=O)cc(CC(=O)O)n1` [compound 411], the IC50 under setting [2] lay within 50 to 1000 nM and the IC50 under setting [3] is 193 nM.

As to `Cc1nc2cnc(N(C)C3CCN([C@H]4C[C@H](F)C4)CC3)c(C#N)c2c(=O)n1CC#Cc1ccc(Cl)cc1-c1ccnc2c(C(=O)NS(=O)(=O)C3COC3)csc12` [compound 1791], under setting [1], the IC50 was 10.1 nM.

`Cc1nc2cnc(O)c(C#N)c2c(=O)n1CC#Cc1ccc(Cl)cc1-c1ccnc2c(C(=O)O)csc12` [compound 891]: the IC50 is, setting by setting: under setting [2], < 50 nM; under setting [3], 13.7 nM.

On to `Cc1cc(-c2cc(Cl)ccc2C#CCn2c(C)nc3cc(C(F)(F)F)c(-c4ccncn4)c(C#N)c3c2=O)c2scc(C(=O)O)c2n1` [compound 908], for which the IC50 by setting is: under setting [2], < 50 nM; under setting [3], 3.26 nM.

Consider `Cc1cc(-c2cc(Cl)ccc2OCCn2c(C)nc3cc(C(F)(F)F)c(-c4ccns4)c(C#N)c3c2=O)c2scc(C(=O)O)c2n1` [compound 348], for which the IC50 under setting [2] is < 50 nM and the IC50 under setting [3] was 15.4 nM.

As for `Cc1nc2cc(C(F)(F)F)c(CN3CCN(C)CC3)c(C#N)c2c(=O)n1CC#Cc1ccc(Cl)cc1-c1ccnc2c(C(=O)O)csc12` [compound 615], the IC50 reads like this: under setting [2], < 50 nM; under setting [3], 16.3 nM.

Turning to `N#Cc1cc2c(=O)n(CCOc3ccc(Cl)cc3-c3ncc(C(=O)O)s3)cnc2cn1` [compound 52], the IC50 is > 1000 nM under setting [2] and > 3000 nM under setting [3].

As for `N#Cc1cc(C(F)(F)F)cc2c(Cl)c(Cl)n(CCOc3ccc(Cl)cc3-c3ccnc4c(C(=O)O)csc34)c(=O)c12` [compound 1970], the IC50 under setting [1] was 67.2 nM.

With `Cc1cc(-c2cc(Cl)ccc2OCCn2c(C)nc3cc(Cl)c(N(C)c4cncc(F)c4)c(C#N)c3c2=O)c2scc(C(=O)O)c2n1` [compound 961], the IC50 is, setting by setting: under setting [2], < 50 nM; under setting [3], 21.1 nM.

For the compound `Cc1sc2c(-c3cc(Cl)ccc3OCCn3c(C)nc4cc(C(F)(F)F)cc(C#N)c4c3=O)ccnc2c1C(=O)O` [compound 205], the IC50 under setting [2] was 50 to 1000 nM and the IC50 under setting [3] was 101 nM.

With `Cc1nc2cnc(N(C)[C@@H]3[C@@H]4C[C@H]3CN(CC(C)(F)F)C4)c(C#N)c2c(=O)n1CC#Cc1ccc(Cl)cc1-c1ccnc2c(C(=O)O)csc12` [compound 1576], under setting [1], the IC50 is 17.9 nM.

`Cc1cc(-c2cc(Cl)ccc2OCCn2c(C)nc3cc(CCN(C)C)c(OC(F)F)c(C#N)c3c2=O)c2scc(C(=O)O)c2n1` [compound 607]: the IC50 was < 50 nM under setting [2] and 5.5 nM under setting [3].

Values taken from patent US11286268B1, “EIF4E-inhibiting compounds and methods” (EFFECTOR THERAPEUTICS, INC., priority 2019, dated 2022).
